Experiments:
[1] = target: T1, recombinant SARS-CoV-2 main protease (Mpro) (Severe acute respiratory syndrome coronavirus 2, UniProt P0DTD1); assay: biochemical; conditions: FRET assay, Mpro 50 nM, substrate 10 μM
T1 construct: the main protease (Mpro; also called 3CLpro) which has an essential role in processing the polyproteins

[2] = system: SARS-CoV-2 (SARS-CoV2/ZG/297-20) in Vero E6 cells; assay: microbe, parasite or virus in culture; assay type: cell-based; conditions: for inhibition at 10 µM / inhibition at 50 µM: Severe acute respiratory syndrome coronavirus 2, Vero C1008, 72 h; for inhibition at 10 µM: read-out: Antiviral Activity 10 uM; for inhibition at 50 µM: read-out: Antiviral Activity 50 uM

Work on `O=C1CCC(N2C(=O)c3cc(F)c(N4CCN(C(=O)[C@H](NC(=O)[C@@H](c5cccnc5)N(C(=O)c5ccco5)c5ccc(-c6ccccc6)cc5)c5ccccc5)CC4)cc3C2=O)C(=O)N1` (single isomer, unassigned) [TS467] yielded an IC50 [1] of less than 100 nM, an inhibition at 10 µM [2] of less than 25% and an inhibition at 50 µM [2] of less than 25%.
In the case of `O=C1CCC(N2C(=O)c3ccc(N4CCN(CC5CCN(C(=O)[C@H](NC(=O)[C@@H](c6cccnc6)N(C(=O)c6ccco6)c6ccc(-c7ccccc7)cc6)c6ccccc6)CC5)CC4)cc3C2=O)C(=O)N1` (single isomer, unassigned) [TS470], the IC50 [1] is reported as less than 100 nM, the inhibition at 10 µM [2] is reported as less than 25% and the inhibition at 50 µM [2] is reported as less than 50%.
With `O=C1CCC(N2C(=O)c3cc(F)c(N4CCN(CC5CCN(C(=O)[C@H](NC(=O)[C@@H](c6cccnc6)N(C(=O)c6ccco6)c6ccc(-c7ccccc7)cc6)c6ccccc6)CC5)CC4)cc3C2=O)C(=O)N1` (single isomer, unassigned) [TS471] the IC50 [1] was less than 1000 nM, the inhibition at 10 µM [2] was less than 25% and the inhibition at 50 µM [2] was less than 25%.
Compound `O=C(COc1ccc(C2CCC(=O)NC2=O)cc1)NCCNC(=O)[C@H](NC(=O)[C@@H](c1cccnc1)N(C(=O)c1ccco1)c1ccc(-c2ccccc2)cc1)c1ccccc1` (single isomer, unassigned) [TS476] has an IC50 [1] of less than 100 nM, an inhibition at 10 µM [2] of less than 0% and an inhibition at 50 µM [2] of less than 0%.
`O=C(COc1ccc(C2CCC(=O)NC2=O)cc1)NCCCCNC(=O)[C@H](NC(=O)[C@@H](c1cccnc1)N(C(=O)c1ccco1)c1ccc(-c2ccccc2)cc1)c1ccccc1` (single isomer, unassigned) [TS477] showed an IC50 [1] of less than 100 nM, an inhibition at 10 µM [2] of less than 0% and an inhibition at 50 µM [2] of less than 0%.
Compound `O=C1CCC(N2C(=O)c3cccc(OCCCCCCC(=O)Nc4cccn([C@@H](CC5CC5)C(=O)N[C@@H](C[C@@H]5CCNC5=O)C(=O)C(=O)NCc5ccccc5)c4=O)c3C2=O)C(=O)N1` (stereo partly shown) [BT150] has an IC50 [1] of less than 1000 nM, an inhibition at 10 µM [2] of less than 25% and an inhibition at 50 µM [2] of less than 25%.
Work on `O=C1CCC(N2C(=O)c3cccc(OCCCCCCCC(=O)Nc4cccn([C@@H](CC5CC5)C(=O)N[C@@H](C[C@@H]5CCNC5=O)C(=O)C(=O)NCc5ccccc5)c4=O)c3C2=O)C(=O)N1` (stereo partly shown) [BT152] yielded an IC50 [1] of less than 1000 nM, an inhibition at 10 µM [2] of less than 25% and an inhibition at 50 µM [2] of less than 50%.
`O=C1CCC(N2C(=O)c3cccc(OCCCCCCNC(=O)c4ccc5cncc(N6C(=O)NC7(CC(c8ccccc8Cl)C7)C6=O)c5c4)c3C2=O)C(=O)N1` (stereo not shown) [Compound C10778L, 4-(2-(2-chlorophenyl)-6,8-dioxo-5,7-diazaspiro[3.4]octan-7-yl)-N-(6-((2-(2,6-dioxopiperidin-3-yl)-1,3-dioxoisoindolin-4-yl)oxy)hexyl)isoquinoline-6-carboxamide] showed an IC50 [1] of less than 100 nM, an inhibition at 10 µM [2] of less than 25% and an inhibition at 50 µM [2] of less than 25%.
With `O=C1CCC(N2C(=O)c3cccc(OCCNC(=O)c4ccc5cncc(N6C(=O)NC7(CC(c8ccccc8Cl)C7)C6=O)c5c4)c3C2=O)C(=O)N1` (stereo not shown) [Compound C10778P, 4-(2-(2-chlorophenyl)-6,8-dioxo-5,7-diazaspiro[3.4]octan-7-yl)-N-(2-((2-(2,6-dioxopiperidin-3-yl)-1,3-dioxoisoindolin-4-yl)oxy)ethyl)isoquinoline-6-carboxamide] the IC50 [1] was less than 100 nM, the inhibition at 10 µM [2] was greater than 75% and the inhibition at 50 µM [2] was greater than 75%. For the same compound, the EC50 ([2]; Severe acute respiratory syndrome coronavirus 2, Vero C1008, Vero E6 infected with SARS-CoV-2 at an MOI of 0.05, read-out: EC50 in antiviral assay) was 4900 nM.
In the case of `O=C1CCC(N2C(=O)c3ccc(NCCCCCCNC(=O)c4ccc5cncc(N6C(=O)NC7(CC(c8ccccc8Cl)C7)C6=O)c5c4)cc3C2=O)C(=O)N1` (stereo not shown) [Compound C10778Q, 4-(2-(2-chlorophenyl)-6,8-dioxo-5,7-diazaspiro[3.4]octan-7-yl)-N-(6-((2-(2,6-dioxopiperidin-3-yl)-1,3-dioxoisoindolin-5-yl)amino)hexyl)isoquinoline-6-carboxamide], the IC50 [1] is reported as less than 1000 nM, the inhibition at 10 µM [2] is reported as less than 0% and the inhibition at 50 µM [2] is reported as less than 25%.

From patent US20260137677A1, “PROTACS USEFUL AGAINST THE MAIN PROTEASE SARS-COV-2” (Tocris Cookson Limited, priority 2022, published 2026)
